Where two headings read alike, the source gives them in different places.
What was measured:
[1] = read-out: Approx. Cmax (maximum serum concentration); rat, oral; cited from earlier work
SARS-CoV-2 [2] = experiment: microbe, parasite or virus in culture; format: cell-based; details: Severe acute respiratory syndrome coronavirus 2, Calu-3, 24 h, Calu-3 cells, MOI 0.5, 24 h
SARS-CoV-2 [3] = experiment: microbe, parasite or virus in culture; details: Severe acute respiratory syndrome coronavirus 2, Vero, 24 h, read-out: SARS-CoV-2 IC50 in Vero cells
M^pro = M^pro (Severe acute respiratory syndrome coronavirus 2, UniProt P0DTD1); format: biochemical; details: FRET assay, 0.1 to 50 μM
[4] = Cytotoxicity (CC50) in Calu-3 cells; details: human
[5] = Cytotoxicity (CC50) in Vero cells; details: African green monkey
SARS-CoV-2 [6] = experiment: Checkerboard drug combination assay, SARS-CoV-2 inhibition in Vero cells; format: cell-based; details: Severe acute respiratory syndrome coronavirus 2, Vero, read-out: Relative viral inhibition (%); for inhibition at 0.63 µM: Remdesivir 0.63 μM; for inhibition at 1.26 µM: Remdesivir 1.26 μM; for inhibition at 2.52 µM: Remdesivir 2.52 μM; for inhibition at 5.05 µM: Remdesivir 5.05 μM; for inhibition at 10.09 µM: Remdesivir 10.09 μM; for inhibition at 20.18 µM: Remdesivir 20.18 μM; for inhibition at 40.36 µM: Remdesivir 40.36 μM
[7] = Checkerboard drug combination assay, cell viability of Vero cells; details: African green monkey, Vero cells (ATCC CCL-81), Relative cell viability (%); for viability at 24 h, 0.63 μM: Remdesivir 0.63 μM; for viability at 24 h, 1.26 μM: Remdesivir 1.26 μM; for viability at 24 h, 2.52 μM: Remdesivir 2.52 μM; for viability at 24 h, 5.05 μM: Remdesivir 5.05 μM; for viability at 24 h, 10.09 μM: Remdesivir 10.09 μM; for viability at 24 h, 20.18 μM: Remdesivir 20.18 μM; for viability at 24 h, 40.36 μM: Remdesivir 40.36 μM
SARS-CoV-2 [8] = details: assay validation with reference drugs
in vitro [9] = details: human
in vitro [10] = details: African green monkey
COVID-19 = details: cited from earlier work
[11] = read-out: Approx. Cmax (maximum serum concentration); human, intravenous injection; cited from earlier work
SARS-CoV-2 [12] = experiment: in vitro; details: African green monkey
RdRp [13] = system: RdRp; design: method as in ref 29 (a number printed in a supplementary file, which may have a reference list of its own: not looked up in the article's list); details: PDB 1T05; read-out: Binding affinity to RdRp (IC50); cited from earlier work
SARS-CoV-2 RdRp = SARS-CoV-2 RdRp (Severe acute respiratory syndrome coronavirus 2, UniProt P0DTD1); experiment: RdRp enzyme assay kit; format: biochemical; design: dose or concentration left out as unconfirmed; details: positive control, even at high concentrations
RdRp [14] = system: RdRp; design: method as in ref 28 (a number printed in a supplementary file, which may have a reference list of its own: not looked up in the article's list); details: PDB 4WTG; read-out: Binding affinity to RdRp (IC50); cited from earlier work
Mpro = details: read-out: Binding affinity to Mpro (IC50); PDB 6W63; cited from earlier work

Structure (SMILES): Cc1cc(O)c2c(c1)C(=O)c1cc(O)cc(O)c1C2=O [Emodin]
- Cmax [1]: ~0.078 µM
- IC50 (SARS-CoV-2 [2]): 27.9 µM
- IC50 (SARS-CoV-2 [3]): 31.4 µM
- inhibitory activity against M^pro (M^pro): showed inhibitory activities
- CC50 at 24 h [4]: > 50 µM
- CC50 at 24 h [5]: > 50 µM

Structure (SMILES): CCC(CC)COC(=O)[C@H](C)N[P@](=O)(OC[C@H]1O[C@@](C#N)(c2ccc3c(N)ncnn23)[C@H](O)[C@@H]1O)Oc1ccccc1 [Remdesivir]
- inhibition at 0.63 µM (SARS-CoV-2 [6]; Fig. 4A, Omipalisib 0.00 μM): 4%
- inhibition at 1.26 µM (SARS-CoV-2 [6]; Fig. 4A, Omipalisib 0.00 μM): 4%
- inhibition at 2.52 µM (SARS-CoV-2 [6]; Fig. 4A, Omipalisib 0.00 μM): 1%
- inhibition at 5.05 µM (SARS-CoV-2 [6]; Fig. 4A, Omipalisib 0.00 μM): 20%
- inhibition at 10.09 µM (SARS-CoV-2 [6]; Fig. 4A, Omipalisib 0.00 μM): 55%
- inhibition at 20.18 µM (SARS-CoV-2 [6]; Fig. 4A, Omipalisib 0.00 μM): 81%
- inhibition at 40.36 µM (SARS-CoV-2 [6]; Fig. 4A, Omipalisib 0.00 μM): 89%
- inhibition at 0.63 µM (SARS-CoV-2 [6]; Fig. 4G, Tipifarnib 0.00 μM): 1%
- inhibition at 1.26 µM (SARS-CoV-2 [6]; Fig. 4G, Tipifarnib 0.00 μM): 3%
- inhibition at 2.52 µM (SARS-CoV-2 [6]; Fig. 4G, Tipifarnib 0.00 μM): 16%
- inhibition at 5.05 µM (SARS-CoV-2 [6]; Fig. 4G, Tipifarnib 0.00 μM): 54%
- inhibition at 10.09 µM (SARS-CoV-2 [6]; Fig. 4G, Tipifarnib 0.00 μM): 91%
- inhibition at 20.18 µM (SARS-CoV-2 [6]; Fig. 4G, Tipifarnib 0.00 μM): 97%
- inhibition at 40.36 µM (SARS-CoV-2 [6]; Fig. 4G, Tipifarnib 0.00 μM): 98%
- IC50 (SARS-CoV-2 [2]): 2.49 µM
- viability at 24 h, 0.63 μM ([7]; Fig. 4B, Omipalisib 0.00 μM): 86%
- viability at 24 h, 1.26 μM ([7]; Fig. 4B, Omipalisib 0.00 μM): 87%
- viability at 24 h, 2.52 μM ([7]; Fig. 4B, Omipalisib 0.00 μM): 87%
- viability at 24 h, 5.05 μM ([7]; Fig. 4B, Omipalisib 0.00 μM): 91%
- viability at 24 h, 10.09 μM ([7]; Fig. 4B, Omipalisib 0.00 μM): 92%
- viability at 24 h, 20.18 μM ([7]; Fig. 4B, Omipalisib 0.00 μM): 93%
- viability at 24 h, 40.36 μM ([7]; Fig. 4B, Omipalisib 0.00 μM): 93%
- viability at 24 h, 0.63 μM ([7]; Fig. 4H, Tipifarnib 0.00 μM): 88%
- viability at 24 h, 1.26 μM ([7]; Fig. 4H, Tipifarnib 0.00 μM): 90%
- viability at 24 h, 2.52 μM ([7]; Fig. 4H, Tipifarnib 0.00 μM): 94%
- viability at 24 h, 5.05 μM ([7]; Fig. 4H, Tipifarnib 0.00 μM): 97%
- viability at 24 h, 10.09 μM ([7]; Fig. 4H, Tipifarnib 0.00 μM): 95%
- viability at 24 h, 20.18 μM ([7]; Fig. 4H, Tipifarnib 0.00 μM): 98%
- viability at 24 h, 40.36 μM ([7]; Fig. 4H, Tipifarnib 0.00 μM): 94%
- antiviral activity against SARS-CoV-2 in Vero cells (SARS-CoV-2 [8]): showed antiviral activity
- IC50 (SARS-CoV-2 [3]): 10.1 µM
- CC50 (in vitro [9]): > 50 µM
- CC50 (in vitro [10]): > 50 µM
- patients with clinical improvement (COVID-19; 36 out of 53 patients with severe illness): 68%
- average recovery time (COVID-19; COVID-19 patients, vs 15 d placebo): 11 days
- clinical benefits (COVID-19; severe COVID-19 patients): no statistically significant clinical benefits
- Cmax [11]: ~9 µM
- selectivity ratio (SARS-CoV-2 [12]): 4.96

Structure (SMILES): C[C@H](Cn1cnc2c(N)ncnc21)OCP(=O)(O)O [TNV (tenofovir)]
- IC50 (RdRp [13]): 1.3 µM

Structure (SMILES): N#C[C@@]1(c2ccc3c(N)ncnn23)O[C@H](COP(=O)(O)OP(=O)(O)OP(=O)(O)O)[C@@H](O)[C@H]1O [RDV-TP, remdesivir triphosphate]
- activity in RdRp assay (SARS-CoV-2 RdRp): did not show activity

Structure (SMILES): CC(C)OC(=O)[C@H](C)N[P@](=O)(OC[C@H]1O[C@@H](n2ccc(=O)[nH]c2=O)[C@](C)(F)[C@@H]1O)Oc1ccccc1 [6GS (sofosbuvir)]
- IC50 (RdRp [14]): 0.064 µM

Structure (SMILES): CC(C)(C)c1ccc(N(C(=O)c2cnc[nH]2)[C@@H](C(=O)NC2CCCCC2)c2cccnc2)cc1 [X77]
- IC50 (Mpro): 2.3 µM

— publication PMC8325362, “Drugs repurposed for COVID-19 by virtual screening of 6,218 drugs and cell-based assay” (Proceedings of the National Academy of Sciences of the …, 2021)
